Test results reported in US10349662B2, “Insecticidal compositions and methods of using the same” (priority 2011, dated 2019).
“And” between values parts separate entries of the source, which are not always exact repeats. Equal entries are not always repeated. Where two headings read alike, the source gives them in different places.

Tested on: Aedes aegypti mosquitoes
Test: Topical bioassay on adult female Aedes aegypti mosquitoes (knockdown 1 h, mortality 24 h; Colby calculation for combinations)
Type: in vivo
Source text: Components of a composition can have a synergistic or additive effect on insecticidal activity. Components have an additive effect when the effect of the combination is equal to the sum of the effects of each individual component. In contrast, components have a synergistic effect when the effect of the combination exceeds the sum of the effects of the components when applied individually. The effect (E) of a combination of two compounds may be calculated using the Colby formula (1) (S. R. Colby, “Calculating Synergistic and Antagonistic Responses of Herbicide Combinations”, Weeds 1967, 15, 20-22):
If the actual insecticidal kill rate is the calculated value (E), then the action of the combination is additive. If the actual insecticidal kill rate exceeds the calculated value (E), then the action of the combination is super-additive, that is, a synergistic effect is present. If the insecticidal kill rate is lower than the calculated value (E), then the action of the combination is considered antagonistic.
Adult female Aedes aegypti mosquitoes were segregated in 18″×18″ screen cages based on date of eclosion, therefore the exact age of the mosquitoes were known for bioassays.
Ten female mosquitoes, aged four to six days after eclosion, were aspirated out of their respective cage and into a small glass jar. The mosquitoes were then anesthetized with CO2 gas for 30 seconds. After the adults were anesthetized, they were quickly placed on a plastic platform for treatment application. Treatments were serially diluted (using a BrandTech Scientific Transferpette S pipette (100-1000 μL), labeled centrifuge tubes, and a vortex mixer) from stocks of insecticides using reagent grade acetone as the diluent to concentrations as indicated for each treatment solution. A treatment solution may contain additional ingredients as indicated for each study.
Using a Hamilton PB00-1 Repeating Dispenser with a Hamilton 25 Microliter Syringe, 0.5 μL of each treatment solution was applied to the thorax of each mosquito. Immediately following the application of the treatment, the mosquitoes were gently transferred into a clean paper cup and covered with screen. The mesh screen prevented the mosquitoes from escaping and allowed the specimens to be viewed for ratings. A cotton ball soaked with 10% sucrose solution was inserted into a side hole of each cup for hydration and nourishment. Each treatment variable in the study was replicated three times using separate cups for each replication.
The untreated controls treatments were anesthetized for 30 seconds and gently transferred to the paper cups. The acetone treated control was treated exactly as described above except that the solution applied to each mosquito was undiluted acetone.
The condition of the mosquitoes in each cup was recorded at one hour and 24 hours after initial treatment. The condition classifications used were (1) alive and flying, (2) alive and unable to fly, or (3) dead. The percent mortality for each treatment was calculated by summing the mortalities of each replicate then calculating the percent dead from the total number of mosquitoes.
Where indicated, the mortality data were subjected to probit analysis using the Statistical Analysis System Version 9.1 program PROC PROBIT (SAS Institute (2003) PROC user's manual, version 9.1. SAS Institute, Cary, N.C.).

[1] = Aedes aegypti, topical, 24 h, read-out: % MORTALITY AFTER 24 HRS, active ingredient alone, 3%, adult, virgin, female Aedes aegypti

SMILES: C=C(C)[C@@H]1CC=C(CO)CC1 [(S)-(−)-Perillyl alcohol]
- % MORTALITY AFTER 24 HRS (1%): 0%
- % MORTALITY AFTER 24 HRS (2%, listed as (S)-(−)-perillyl alcohol): 70%
- % MORTALITY AFTER 24 HRS (2%, listed as (S)-Perillyl alcohol): 33%
- % MORTALITY AFTER 24 HRS (single active, 2%): 80% and 67%

SMILES: OCC1CC=CCC1 (stereo not shown) [3-Cyclohexene-1-methanol, 3-cyclohexene-1-methanol]
- mortality at 3 % (Aedes aegypti, topical, 24 h, read-out: % MORTALITY AFTER 24 HRS, single active, 3%): 57%

SMILES: C=C(C)[C@H]1CC=C(C)C(=O)C1 [(S)-(+)-Carvone]
- % MORTALITY AFTER 24 HRS (3%): 13%
- % MORTALITY AFTER 24 HRS (single active, 3%): 7% and 17%

SMILES: CC(C)=CC1C(C(=O)OCc2cccc(Oc3ccccc3)c2)C1(C)C (stereo not drawn) [Sumithrin, sumithrin (d-phenothrin), reference compound]
- mortality at 700 pg (Aedes aegypti, topical, 24 h, read-out: % MORTALITY AFTER 24 HRS, 0.0007 μg): 27%
- mortality at 300 pg (Aedes aegypti, topical, 24 h, read-out: % MORTALITY AFTER 24 HRS, insecticide alone, 0.0003 μg, adult, virgin, female Aedes aegypti): 27%
- mortality at 700 pg (Aedes aegypti, topical, 24 h, read-out: % MORTALITY AFTER 24 HRS, insecticide alone, 0.0007 μg, adult, virgin, female Aedes aegypti): 43%
- mortality at 700 pg (Aedes aegypti, topical, 24 h, read-out: % MORTALITY AFTER 24 HRS, single active, 0.0007 μg): 27%

SMILES: C=C(C)[C@H]1CC=C(C)CC1 [Limonene]
- % MORTALITY AFTER 24 HRS (5%): 27%

SMILES: C=C(C)[C@@H]1CC=C(C=O)CC1 [(S)-(−)-Perillaldehyde]
- 1 hour knockdown (1%): 3%
- % MORTALITY AFTER 24 HRS (1%): 7%
- % MORTALITY AFTER 24 HRS (2%): 30%
- 1 hour knockdown (5%): 93%
- % MORTALITY AFTER 24 HRS (5%): 93%
- 1 hour knockdown (10%): 100%
- % MORTALITY AFTER 24 HRS (10%): 100%
- 1 hour knockdown (20%): 97%
- % MORTALITY AFTER 24 HRS (20%): 100%

SMILES: O=[N+]([O-])NC1=NCCN1Cc1ccc(Cl)nc1 [Imidacloprid, imidacloprid, reference compound]
- mortality at 5 ng (Aedes aegypti, topical, 24 h, read-out: % MORTALITY AFTER 24 HRS, 0.005 μg): 60%
- mortality at 2.5 ng (Aedes aegypti, topical, 24 h, read-out: % MORTALITY AFTER 24 HRS, single active, 0.0025 μg): 83%
- mortality at 3 ng (Aedes aegypti, topical, 24 h, read-out: % MORTALITY AFTER 24 HRS, single active, 0.003 μg): 23%
- mortality at 5 ng (Aedes aegypti, topical, 24 h, read-out: % MORTALITY AFTER 24 HRS, single active, 0.005 μg): 30%

SMILES: CCOc1ccc(C(C)(C)COCc2cccc(Oc3ccccc3)c2)cc1 [Etofenprox, etofenprox, reference compound]
- 1 hour knockdown (0.001 μg/mosquito): 73%
- 1 hour knockdown (0.002 μg/mosquito): 83%
- mortality at 0.0005 µg/mosquito (Aedes aegypti, topical, 24 h, read-out: % MORTALITY AFTER 24 HRS, 0.0005 μg/mosquito): 97%
- mortality at 0.001 µg/mosquito (Aedes aegypti, topical, 24 h, read-out: % MORTALITY AFTER 24 HRS, 0.001 μg/mosquito): 40%
- mortality at 0.002 µg/mosquito (Aedes aegypti, topical, 24 h, read-out: % MORTALITY AFTER 24 HRS, 0.002 μg/mosquito): 53%
- mortality at 1 ng (Aedes aegypti, topical, 24 h, read-out: % MORTALITY AFTER 24 HRS, single active, 0.001 μg): 40%
- mortality at 2 ng (Aedes aegypti, topical, 24 h, read-out: % MORTALITY AFTER 24 HRS, single active, 0.002 μg): 37%

SMILES: CC1=CCC(=C(C)C)CC1 [Terpinolene, terpinolene]
- mortality at 3 % [1]: 20%

SMILES: C=C(C)[C@H]1CC=C(C)C(=O)C1 [(S)-(−)-Carvone]
- % MORTALITY AFTER 24 HRS (3%): 20%

SMILES: CC1(C)C(C=C(Cl)Cl)C1C(=O)OCc1cccc(Oc2ccccc2)c1 (stereo not shown) [Permethrin, permethrin, reference compound]
- 1 hour knockdown (0.0004 μg/mosquito): 93%
- mortality at 300 pg (Aedes aegypti, topical, 24 h, read-out: % MORTALITY AFTER 24 HRS, 0.0003 μg): 27%
- mortality at 0.0004 µg/mosquito (Aedes aegypti, topical, 24 h, read-out: % MORTALITY AFTER 24 HRS, 0.0004 μg/mosquito): 70%
- mortality at 300 pg (Aedes aegypti, topical, 24 h, read-out: % MORTALITY AFTER 24 HRS, single active, 0.0003 μg): 37%
- mortality at 400 pg (Aedes aegypti, topical, 24 h, read-out: % MORTALITY AFTER 24 HRS, single active, 0.0004 μg): 47%

SMILES: CC1=CC(=O)CC(C)(C)C1 [Isophorone, isophorone]
- mortality at 3 % [1]: 57%

SMILES: CC1=CC(=O)CC(C)C1 (stereo not shown) [3,5-Dimethyl . . .]
- % MORTALITY AFTER 24 HRS (active ingredient alone, 3%, adult, virgin, female Aedes aegypti): 63%

SMILES: C=C(C)[C@@H]1CC=C(C)C(=O)C1 [(R)-(−)-Carvone]
- % MORTALITY AFTER 24 HRS (3%): 7%
- % MORTALITY AFTER 24 HRS (single active, 3%): 13% and 10%
